Series [1] deals with colonic mucosal epithelial cells (NCM460).
Protocol: (§1) anti-HA Ab and blotted with indicated Abs. c, Cell viability of indicated cells treated with
(§2) Data are means ± SEM of 3 independent assays. d,
(§3) CCK-8 was conducted to detect the cell viability in cell proliferation and cytotoxicity assays
(§4) according to the manufacturer’s instructions (Dojindo Inc., Kumamoto, Japan). Cells were
(§5) plated in 96-well plates, starting at 3,000 cells/well. For cytotoxicity assay, the cells were
(§6) treated with indicated drugs, then a mixture of 10 µl CCK-8 solution and 90 µl complete culture
(§7) medium was added into each well. After 1 hr of incubation, the absorbance was measured at
Series [2] is described as follows: In vivo bio-distribution and clearance of FAM-labeled peptide (IVIS). The following applies: FAM-labeled peptides, bolus tail vein injection 2 mg kg-1, male athymic BALB/c nude mice. The protocol:
detected by Exactive™ Plus Orbitrap (Thermo Fisher Scientific, USA).
In vitro plasma stability assay
The rat blood was collected by
The plasma solutions were incubated […]
ionization mass spectrometric detection. The values represent the mean of 3 independent assays.
In vivo bio-distribution and clearance of peptide
OH, USA). Data was analyzed by the built-in software.

For series [3], the system named is bronchial epithelial cells (BEAS-2B).
Protocol: as §1, §2, §3, §4, §5, §6, §7
A short description of series [4]: In vitro plasma stability assay. The following applies: normalised to 100 at 0 min.
Protocol: The in vitro stability of the peptide was studied in rat plasma. The rat blood was collected by
retroorbital puncture and plasma was harvested after centrifugation (2,500×g, 5 min, 4℃) and
stored at -70℃. The reactions were initiated by adding the test peptide to 100 µl of preheated
plasma solution to yield a final concentration of 4 mM. The plasma solutions were incubated
for indicated times and added 200 µl acetonitrile to deproteinize the plasma. The samples were
subjected to vortex mixing for 1 min and centrifugation for 15 min (14,000 rpm, 4℃). Peptide
concentration in supernatants was determined by reversed-phase HPLC with electrospray
Details of series [5]: species or system BALB/c nude mice. The conditions noted are these: mouse, in vivo. The procedure: twice a week for 4 weeks. […] Data are means ± SEM of 3 independent assays. […] CALM: Calmodulin. […] Lung cancer cells were isolated from PDX mice by using the […] One week after tumor inoculation, mice were […] or pemetrexed (100 mg kg-1, once a day). Tumor growth was monitored twice weekly with a caliper. Tumor volume (T ) was calculated using the formula: T =0.5×L×W 2. Mice survival V V […] signs of distress. […] Generation of Stable Cell Lines To establish cell populations stably expressing TRIB3-shRNA1/2, or the Control-shRNA, cells were transfected with TRIB3-shRNA1/2 or the Control-shRNA expressing plasmids. Stable transfectants were selected in medium containing hygromycin. […] (Supplementary Fig. 9a).

Structures are written as SMILES. Bridge positions count the residues as written; N and C are the ends. Square brackets hold non-standard residues; d marks the D form. Peptide text beside a SMILES is read from it. S5 = C=CCCC[C@](C)(N)C(=O)O

Protocol for keratinocytes (HaCaT): as §1, §2, §3, §4, §5, §6, §7

For the compound `CC[C@H](C)[C@@H]1NC(=O)[C@@](C)(NC(=O)[C@H](CC(C)C)NC(=O)[C@H](CC(C)C)NC(=O)[C@H](C)NC(=O)[C@H](CCC(N)=O)NC(=O)[C@@H](N)CC(N)=O)CCCC=CCCC[C@@](C)(C(=O)N[C@H](C(=O)N[C@@H](CCC(=O)O)C(=O)N[C@@H](Cc2ccccc2)C(=O)N[C@@H](CCCCN)C(=O)N[C@@H](CCCCN)C(=O)O)[C@@H](C)O)NC(=O)[C@H](CCCNC(=N)N)NC(=O)[C@H](CC(C)C)NC1=O` [SAH-JGZ4] (H-NQALL[S5]ILR[S5]TEFKK-OH; staple 6-10), the “cell viability, NCM460” value in series [1] is reported as “had no effect on the cell viability”. Moreover, the “half-clearance rate in vivo compared with Pep2-JGZ” value in series [2] was “slower half-clearance rate”. Further, in series [3], the “cell viability, BEAS-2B” value was “had no effect on the cell viability”. The peptide remaining worked out at 113.749 in series [4] (450 min, replicate 1); 125.15 in series [4] (450 min, replicate 2); 119.761 in series [4] (450 min, replicate 3); 115.041 in series [4] (540 min, replicate 1); 121.067 in series [4] (540 min, replicate 2); 118.562 in series [4] (540 min, replicate 3). For the same compound, the peptide remaining in series [4] (630 min, replicate 1) came to 106.23; in series [4] (630 min, replicate 2), 116.53; in series [4] (630 min, replicate 3), 116.365; in series [4] (720 min, replicate 1) it was 109.883; in series [4] (720 min, replicate 2) it was 113.113; in series [4] (720 min, replicate 3), 112.463. The “cell viability, HaCaT” value in the series with keratinocytes (HaCaT) is given as “had no effect on the cell viability”. Moreover, in series [5], the “EGFR and HER2 expression in the heart” value was “did not cause reductions in”.

The values above are taken from PMC7374170, “TRIB3-EGFR interaction promotes lung cancer progression and defines a therapeutic target” (Nature Communications, 2020).
